Measured values from patent publication US20070196434A1, “Methods of preventing or treating sinusitis with oxidative reductive potential water solution” (priority 2006, published 2007).
Like-named read-outs stand apart in the source and are kept apart here. Bridge positions count the residues as written; N and C are the ends. Square brackets hold non-standard residues; d marks the D form. Peptide text beside a SMILES is read from it. * marks the point of attachment. Ileψ(thiazoline)Cys = CC[C@H](C)[C@H](N)C1=N[C@H](C(=O)*)CS1; dOrn = NCCC[C@@H](N)C(=O)O

Legend:
[1] = test system: spore suspension of B. atropheus; experiment: Bacterial suspension assay, spores; type: cell-based; details: 5, and 20 minute time points at 20° C.; Bacitracin 33 Units/ml
Method: Dermacyn is a ready to use product, therefore performing dilutions during testing was not required.
A purchased spore suspension of B. atropheus at 2.5×10^7 /ml was used for testing. In addition fresh suspensions of Pseudomonas aeruginosa, and Staphylococcus aureus were prepared and measured using a spectrophotometer to ensure the titer was acceptable
Nine microliters of test substance was added to 100 ul of microbe suspension. The test mixture was held at 20° C. for the contact times of 20 seconds, 5 minutes, and 20 minutes. 1.0 ml of the test mixture (entire mixture) was added to 9,0 ml of neutralizer for 20 minutes (this is the original neutralization tube or ONT) 1.0 ml of the neutralized test mixture was plated on Tryptic Soy Agar in duplicate for the 5 minute and 20 minute contact times. Additional dilutions and spread plates were used for the 20 second time point, to achieve countable plates.
All plates were incubated at 30° C.-35° C. for a total of 3 days and were evaluated after each day of incubation.

[2] = test system: Pseudomonas aeruginosa, and Staphylococcus aureus; experiment: Bacterial suspension assay, vegetative bacteria; type: cell-based; details: all time points (20 seconds, 5 minutes, 20 minutes) at 20° C.; Bacitracin 33 Units/ml
[3] = test system: human diploid fibroblasts (HDFs); type: cell-based; details: 880 mM
Method: HP is known to be toxic to eukaryotic cells, increasing apoptosis and necrosis and reducing cellular viability. […] HDF cultures were obtained from three different foreskins, which were pooled and cryopreserved together for the purpose of this study. Only diploid cells were used for all experiments. […] Simultaneous analyses of these parameters were performed in the same cell populations by flow cytometry using: […] B) Annexin V-FITC; and C) Propidium iodide. FIG. 4A-4C disclose percentage values expressed as mean±SD (n=3).

[4] = test system: human diploid fibroblasts (HDFs); details: 1 month, 5 μM
[5] = test system: human cell cultures

| SMILES | log reduction of spores [1] | log reduction of the vegetative bacteria [2] | Cell viability ([3]; 5 min) | apoptosis (Annexin-V) ([3]; 5 min) | necrosis (cells incorporating propidium iodide) ([3]; 5 min) | Cell viability ([3]; 30 min) | apoptosis (Annexin-V) ([3]; 30 min) | necrosis (cells incorporating propidium iodide) ([3]; 30 min) | cells with SA-β-Gal expression [4] | RNA degradation [5] |
| --- | --- | --- | --- | --- | --- | --- | --- | --- | --- | --- |
| CC[C@H](C)[C@H](N)C1=N[C@H](C(=O)N[C@@H](CC(C)C)C(=O)N[C@H](CCC(=O)O)C(=O)N[C@H](C(=O)N[C@H]2CCCCNC(=O)[C@H](CC(N)=O)NC(=O)[C@@H](CC(=O)O)NC(=O)[C@H](Cc3cnc[nH]3)NC(=O)[C@@H](Cc3ccccc3)NC(=O)[C@H]([C@@H](C)CC)NC(=O)[C@@H](CCCN)NC2=O)[C@@H](C)CC)CS1 [Bacitracin] ({Ileψ(thiazoline)Cys}-L[dE]IK[dOrn]I[dF]H[dD]N; lactam 4-C) | no evidence of lowering the bacterial or spore populations | no evidence of lowering the bacterial or spore populations |  |  |  |  |  |  |  |  |
| OO [HP, hydrogen peroxide] |  |  | 55% | 15% | 20% | 5% | 20% | 75% | 86% | significant RNA degradation |
